Assay results: publication PMC7414126 (Scientific Reports, 2020)
Where two headings read alike, the source gives them in different places. Values belong to the molecule of their own block, whether it stands above or below them.

Key:
hH2R [1] = details: [125I]-iodoaminopotentidine, re-calculated from published Ki; cited from earlier work
NLuc-hH2R [2] = target: T1, NLuc-hH2R (Homo sapiens, UniProt P25021); assay: BRET-based competition binding with fluorescent ligand 8; details: competition with 8 (c = 50 nM), live HEK293T cells stably expressing NLuc-hH2R, 60 min; mean ± SEM; read-out: pKi (NanoBRET) (converted)
T1 construct: membrane signal peptide of the murine 5HT3A receptor (N); expressed in transfected cells
T1 sequence (P25021 whole entry): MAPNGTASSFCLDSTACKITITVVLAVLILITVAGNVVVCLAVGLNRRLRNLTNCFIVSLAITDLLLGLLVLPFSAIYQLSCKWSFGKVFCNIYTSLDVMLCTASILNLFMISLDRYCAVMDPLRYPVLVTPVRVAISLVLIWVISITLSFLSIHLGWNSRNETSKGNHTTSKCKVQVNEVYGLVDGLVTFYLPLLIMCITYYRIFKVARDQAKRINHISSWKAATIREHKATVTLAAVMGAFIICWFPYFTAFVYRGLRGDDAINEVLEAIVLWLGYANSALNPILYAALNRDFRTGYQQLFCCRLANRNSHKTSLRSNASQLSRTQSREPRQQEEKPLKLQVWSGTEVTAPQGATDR
Procedure: (§1) KG, Wertheim, Germany). The cells were then incubated at 37 °C in a humidified atmosphere (no additional CO2) overnight. […] After 60 min incubation time at 27 °C, 10 μL of the substrate furimazine, which was diluted according to manufacturer's protocol beforehand, were added. After 5 min of equilibration time at 27 °C, the measurement was started. […] After addition of the diluted substrate, the plate was placed inside the reader for 5 min to equilibrate. […] Dissociation experiments were conducted in wells, which have been preincubated with 8 as described above for association experiments. […] All measurements were performed on a TECAN InfiniteLumi plate reader (TECAN, Grödig, Austria) at 27 °C using the Blue2 NB (460 nm ± 35 nm, bandpass) and the Red NB (> 610 nm, longpass) filter combination with an integration time of 100 ms. For the kinetic experiments, integration time was increased to 500 ms for both channels to reduce noise. BRET ratios were calculated by dividing the acceptor emission (red NB) by the donor luminescence (Blue2 NB). For all BRET binding experiments, specific binding was calculated by subtracting non-specific binding from total binding yielding the “corrected BRET ratio”. For saturation binding experiments, total and non-specific binding were fitted simultaneously using the “one-site total and nonspecific binding” fit. Specific binding was fitted accordingly applying the “one-site specific binding” fit. […] The normalized competition binding curves were then fitted with a four-parameter logistic fit yielding pIC50-values. These were transformed into pKi-values using the Cheng-Prusoff equation[38].

hH2R-Gsαs fusion protein [3] = target: T2, hH2R-Gsαs fusion protein (Homo sapiens, UniProt P25021+P63092); details: [3H]UR-DE257; cited from earlier work
T2 construct: made in house; host or cells: Sf9 insect cells (recombinant baculovirus), membrane preparation
T2 sequence (P25021+P63092 fused): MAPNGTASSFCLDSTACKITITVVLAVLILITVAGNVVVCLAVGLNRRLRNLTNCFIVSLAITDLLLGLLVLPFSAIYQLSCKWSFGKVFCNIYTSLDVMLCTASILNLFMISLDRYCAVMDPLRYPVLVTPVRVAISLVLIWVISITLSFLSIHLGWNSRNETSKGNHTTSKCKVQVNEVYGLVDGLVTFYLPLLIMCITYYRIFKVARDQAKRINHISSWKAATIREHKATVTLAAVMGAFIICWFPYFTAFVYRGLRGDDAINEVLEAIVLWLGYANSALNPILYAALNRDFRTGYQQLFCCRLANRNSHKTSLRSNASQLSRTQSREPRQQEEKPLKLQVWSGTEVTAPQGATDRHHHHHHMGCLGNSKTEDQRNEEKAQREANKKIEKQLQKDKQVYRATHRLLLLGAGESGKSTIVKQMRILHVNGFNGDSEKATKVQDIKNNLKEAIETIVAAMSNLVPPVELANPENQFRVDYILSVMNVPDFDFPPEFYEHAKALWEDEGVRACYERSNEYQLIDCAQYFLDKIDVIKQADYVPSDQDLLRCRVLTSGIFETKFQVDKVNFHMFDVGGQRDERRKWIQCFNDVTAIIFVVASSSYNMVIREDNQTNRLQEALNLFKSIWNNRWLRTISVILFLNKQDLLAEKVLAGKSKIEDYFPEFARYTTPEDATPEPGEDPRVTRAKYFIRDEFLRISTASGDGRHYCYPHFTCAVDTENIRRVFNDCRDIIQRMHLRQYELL

hH2R-Gsαs fusion protein [4] = target: T3, hH2R-Gsαs fusion protein (Homo sapiens, UniProt P25021); assay: Radioligand saturation binding on Sf9 membranes; details: membranes of Sf9 insect cells expressing hH2R-Gsαs
T3 construct: made in house; host or cells: Sf9 insect cells (recombinant baculovirus), membrane preparation
T3 sequence (P25021+P63092 fused): as above
Procedure: (§2) All data analysis was performed using Prism 5.0c (GraphPad, San Diego, CA, USA).
Supplementary Figure S7. […] Saturation binding assay was performed as previously described.^3

hH2R [5] = target: T4, hH2R (Homo sapiens, UniProt P25021); assay: Flow cytometric saturation binding assay with HEK293T-hH2R-qs5-HA cells; set-up: expressed in transfected cells; host or cells: HEK293T-hH2R-qs5-HA cells; details: saturation binding at HEK293T-hH2R-qs5-HA cells; mean ± SEM; read-out: pKd (Flow cytometry) (converted)
T4 sequence (P25021 whole entry): as the sequence (P25021 whole entry) above
Procedure: All flow cytometric measurements were performed with FACSCanto™II flow cytometer (Becton Dickinson, Heidelberg, Germany), equipped with an argon laser (488 nm) and a red diode laser (633 nm) (settings: FCS: A, log, 0 V; SSC: A, log, 252 V; ACP: A,H,W, log, 350 V or PerCP-Cy5-5: A,H, log 485 V or PE: A,H,W, log, 420 V) according to general protocols with minor modifications.^4,5 All measurements were performed in duplicate and recorded either in channel PerCP-Cy5 (Py-1, excitation: 488 nm), APC (BODIPY 630/650, excitation: 633 nm) or PE (TAMRA, excitation: 488 nm). Data acquisition was stopped after 10,000 gated events.
Cell culture and preparation of HEK293T-hH2R-qs5-HA cells was performed as described.^4 Briefly, cells were maintained in 25 or 175 cm^2 flasks (Sarstedt, Nümbrecht, Germany) in a humidified atmosphere (95% air, 5% CO2) at 37 °C using Dulbecco`s Modified Eagle`s Medium supplemented with 2 mM L-glutamine (Sigma-Aldrich, Munich, Germany), 10% FCS, 400 µg/mL geneticin (G418), and 100 µg/mL hygromycin B (AG Scientific, San Diego, CA, USA). On the day of the experiment, cells were detached with trypsin/EDTA (0.05%/0.2%) and centrifuged (500 x g, 5 min). The cell pellet was resuspended in Leibovitz’ L-15 medium containing 1% FCS and the cell density was adjusted to 1 x 10^6 cells/mL. The serial dilutions of the tested fluorescent ligands and famotidine (competitor, for non-specific binding) were prepared in DMSO/H2O (1:1, v/v). All incubation steps were performed in 96-well Primaria^TM plates (CORNING, NY, USA). 200 µL of the adjusted cell suspension were either added to 2 µL of DMSO/H2O (1:1, v/v, total binding) or to 2 µl of famotidine (300-fold excess over the fluorescent ligand, non-specific binding). Incubation was started by addition of 2 µL of the respective fluorescent ligand in different concentrations (100-fold concentrated with respect to the final concentration). […] Samples were transferred to 5 mL polystyrol FACS tubes (Sarstedt, Nümbrecht, Germany) and measured immediately. […]

NLuc-hH2R [6] = target: T1, NLuc-hH2R; assay: NanoBRET saturation binding assay
Procedure: as §1

hH2R-Gsαs fusion protein [7] = target: T3, hH2R-Gsαs fusion protein; assay: Radioligand competition binding with [3H]UR-DE257 on Sf9 membranes; details: read-out: pKi (RL comp. binding Sf9 membranes) (converted)
Procedure: as §2

hH2R [8] = target: T4, hH2R; assay: β-Arrestin2 recruitment assay (split-luciferase complementation), HEK293T-ARRB2-H2R cells; type: cell-based; set-up: expressed in transfected cells; host or cells: HEK293T-ARRB2-H2R cell line; details: read-out: pKb (β-arrestin2 recruitment) (converted)
[9] = Chemical stability in binding buffer (HPLC); type: physicochemical
Procedure: The chemical stability of the fluorescent H2R ligands UR-KAT478 (8), UR-KAT515 (9) and UR-KAT514 (10) was investigated at physiological pH (7.4) in binding buffer (12.5 mM MgCl2, 1 mM EDTA and 75 mM Tris/HCl, pH 7.4)^1 and in case of UR-KAT514 (10) as well in a mixture of DMSO/binding buffer 1:1. Incubation was started by addition of 27.5 μL of a 2.5 mM solution of the respective compounds in DMSO/Millipore H2O 1:1, which were freshly prepared from a 5 mM stock solution in DMSO, to 522.5 μL of binding buffer or DMSO/binding buffer 1:1 yielding a final concentration of […]. The samples were shaken for up to 4 days at 700 rpm. After indicated time periods, a 70 μL aliquot was taken and diluted with 70 µL of a mixture of MeCN, Millipore H2O and 10% aqueous TFA (60:90:1). Prior to HPLC analysis, the samples were stored at -20 °C. 50 μL of the resulting solution were analyzed by HPLC as described in the experimental section. The absorption was detected at 220 nm. The blank HPLC run was performed under identical conditions without any ligand.

[10] = representative NanoBRET saturation isotherm, result from single experiment, HEK293T NLuc-hH2R, read-out: Kd* (single experiment)
[11] = saturation binding, live HEK293T cells stably expressing NLuc-hH2R, mean ± SEM, read-out: pKd (NanoBRET) (converted)

Kd (hH2R-Gsαs fusion protein [4]): 11.2 nM
SMILES: [3H]CC([3H])C(=O)NCCCCCCNc1c(NCCCOc2cccc(CN3CCCCC3)c2)c(=O)c1=O (stereo not drawn) [Compound 7]

Kd (hH2R [5]): 562 nM | Kd (NLuc-hH2R [6]; [10]): 143 nM | Kd (NLuc-hH2R [6]; [11]): 145 nM | Ki (hH2R-Gsαs fusion protein [7]): 100 nM | Kb (hH2R [8]): 66.1 nM | Chemical stability (decomposition) ([9]; binding buffer pH 7.4, rt, 24 h incubation): no decomposition
SMILES: CN(C)c1ccc2c(-c3ccc(C(=O)NCCCCNc4c(NCCCOc5cccc(CN6CCCCC6)c5)c(=O)c4=O)cc3C(=O)[O-])c3ccc(N(C)C)cc3[o+]c2c1 [Compound 9, 2-(3,6-Bis(dimethylamino)xanthylium-9-yl)-5-((4-((3,4-dioxo-2-((3-(3-(piperidin-1-ylmethyl)phenoxy)propyl)amino)cyclo-but-1-en-1-yl)amino)butyl)carbamoyl)benzoate]

Kd (hH2R [5]): 13.8 nM | Kd (NLuc-hH2R [6]; [10]): 2.99 nM | Kd (NLuc-hH2R [6]; [11]): 2.57 nM | Ki (hH2R-Gsαs fusion protein [7]): 4.47 nM | Kb (hH2R [8]): 8.13 nM | Adsorption to plastic vessel ([9]; BB/DMSO 1:1, rt): reduced adsorption | Chemical stability (degradation) ([9]; binding buffer pH 7.4, rt): no chemical degradation | HPLC signal of compound after incubation (adsorption to plastic vessel) ([9]; binding buffer pH 7.4, rt, after one hour): almost no signal
SMILES: O=C(CCCCCNC(=O)COc1ccc(/C=C/C2=[N+]3C(=Cc4ccc(-c5cccs5)n4[B-]3(F)F)C=C2)cc1)NCCCCNc1c(NCCCOc2cccc(CN3CCCCC3)c2)c(=O)c1=O [Compound 10]

Ki (hH2R-Gsαs fusion protein [7]): 457 nM | Ki (NLuc-hH2R [2]): 1320 nM
SMILES: Cc1nc(N)sc1CCCNC(=N)NCCCCCCCCNC(=N)NCCCc1sc(N)nc1C [Compound 12, reference compound]

Second part, the molecule before the results:

SMILES: CN/C(=N/CCSCc1nc[nH]c1C)NC#N [Compound 2, cimetidine]
pKi (RL comp. binding CHO membranes) (hH2R [1]): 6.18[32]

SMILES: CNC(=C[N+](=O)[O-])NCCSCc1ccc(CN(C)C)o1 [Compound 3, ranitidine]
pKi (RL comp. binding CHO membranes) (hH2R [1]): 7.07[32]

SMILES: NC(N)=Nc1nc(CSCCC(N)=NS(N)(=O)=O)cs1 [Compound 4, famotidine]
pKi (RL comp. binding CHO membranes) (hH2R [1]): 7.80[32] | Ki (NLuc-hH2R [2]): 11.5 nM | pKi (RL comp. binding Sf9 membranes) (hH2R-Gsαs fusion protein [3]): 6.87[28]

SMILES: CCCCCCCCCCCCNC(=N)NCCCc1sc(N)nc1C [Compound 11, reference compound]
Ki (hH2R-Gsαs fusion protein [7]): 251 nM | Ki (NLuc-hH2R [2]): 1020 nM
